This is an account of results in ChEMBL document CHEMBL5537115, “New broad-spectrum and potent antibacterial agents with dual-targeting mechanism: Promoting FtsZ polymerization and disrupting bacterial membranes” (Eur J Med Chem, 2024).

Test [1] deals with Staphylococcus aureus. Briefly: Effect on proton gradient of cytoplasmic membrane in Staphylococcus aureus ATCC25923 at 1 ug/ml measured after 20 mins by diSC35 dye based analysis. To be noted: Cytoplasm membrane, dose 1.0 µg/ml. Type of test: functional, organism-based.
Test [2] has as its system Staphylococcus aureus. Briefly: Disruption of inner membrane in Staphylococcus aureus ATCC25923 at 0.5 ug/ml measured after 12 mins by PI staining based analysis. To be noted: dose 0.5 µg/ml. Type of test: functional, organism-based.
The subject of test [3] is Escherichia coli. Description: Disruption of outer membrane in Escherichia coli ATCC25922 at 16 ug/ml measured after 10 mins by NPN dye based analysis. To be noted: dose 16.0 µg/ml. Type of test: functional, organism-based.
The test system of test [4] is Escherichia coli. Description: Antibacterial activity against penicillin-susceptible Escherichia coli ATCC25922 assessed as bacterial growth inhibition incubated for 20 hrs by CLSI based broth microdilution method. Type of test: functional.
Test [5] concerns Streptococcus pyogenes. Description: Antibacterial activity against erythromycin-susceptible Streptococcus pyogenes 1 assessed as bacterial growth inhibition incubated for 20 hrs by CLSI based broth microdilution method. Type of test: functional.
Test [6] relates to Escherichia coli. Briefly: Antibacterial activity against wild-type Escherichia coli BW25113 assessed as bacterial growth inhibition incubated for 20 hrs by CLSI based broth microdilution method. The test is classed as functional.
For test [7], the system named is Streptococcus pyogenes. Briefly: Antibacterial activity against erythromycin-resistant Streptococcus pyogenes 2 clinical isolate assessed as bacterial growth inhibition incubated for 20 hrs by CLSI based broth microdilution method. Type of test: functional.
The subject of test [8] is Staphylococcus aureus. Briefly: Antibacterial activity against penicillin-resistant Staphylococcus aureus ATCC31007 assessed as bacterial growth inhibition incubated for 20 hrs by CLSI based broth microdilution method. The test is classed as functional.
The next test has as its system Bacillus subtilis. Briefly: Antibacterial activity against penicillin-susceptible Bacillus subtilis ATCC9372 assessed as bacterial growth inhibition incubated for 20 hrs by CLSI based broth microdilution method. The test is classed as functional.
Test [9] has as its system Enterococcus faecium. Description: Antibacterial activity against vancomycin-resistant Enterococcus faecium ATCC51559 assessed as bacterial growth inhibition incubated for 20 hrs by CLSI based broth microdilution method. The test is classed as functional.
The test system of test [10] is Staphylococcus aureus. Description: Antibacterial activity against erythromycin-susceptible Staphylococcus aureus ATCC25923 assessed as bacterial growth inhibition incubated for 20 hrs by CLSI based broth microdilution method. The test is classed as functional.
Test [11] relates to Staphylococcus aureus. Briefly: Antibacterial activity against Staphylococcus aureus clinical isolate assessed as bacterial growth inhibition incubated for 20 hrs by CLSI based broth microdilution method. The test is classed as functional.
The subject of test [12] is Enterococcus faecium. Briefly: Antibacterial activity against vancomycin-susceptible Enterococcus faecium ATCC19434 assessed as bacterial growth inhibition incubated for 20 hrs by CLSI based broth microdilution method. The test is classed as functional.
Test [13] has as its system Staphylococcus epidermidis. Briefly: Antibacterial activity against penicillin-resistant Staphylococcus epidermidis clinical isolate assessed as bacterial growth inhibition incubated for 20 hrs by CLSI based broth microdilution method. The test is classed as functional.
A further test relates to Bacillus pumilus. Briefly: Antibacterial activity against penicillin-susceptible Bacillus pumilus CMCC63202 assessed as bacterial growth inhibition incubated for 20 hrs by CLSI based broth microdilution method. Type of test: functional.
Test [14] concerns Enterococcus faecalis. Briefly: Antibacterial activity against vancomycin-resistant Enterococcus faecalis ATCC51299 assessed as bacterial growth inhibition incubated for 20 hrs by CLSI based broth microdilution method. Type of test: functional.
In a further test the test system is Klebsiella pneumoniae. Description: Antibacterial activity against Klebsiella pneumoniae ATCC BAA-1902 assessed as bacterial growth inhibition incubated for 20 hrs by CLSI based broth microdilution method. Type of test: functional.
For test [15], the system named is Enterococcus faecalis. Briefly: Antibacterial activity against vancomycin-susceptible Enterococcus faecalis ATCC29212 assessed as bacterial growth inhibition incubated for 20 hrs by CLSI based broth microdilution method. The test is classed as functional.
The next test deals with Acinetobacter baumannii. Briefly: Antibacterial activity against Acinetobacter baumannii ATCC19606 assessed as bacterial growth inhibition incubated for 20 hrs by CLSI based broth microdilution method. Type of test: functional.
The test system of test [16] is Staphylococcus aureus. Briefly: Antibacterial activity against methicillin-resistant Staphylococcus aureus ATCC43300 assessed as bacterial growth inhibition incubated for 20 hrs by CLSI based broth microdilution method. The test is classed as functional.

The source made the active and inactive calls. No cut-off for these calls is given here.

In the case of `C[n+]1cc(-c2ccccc2)c(/C=C/c2ccccc2)cc1-c1ccc(C(C)(C)C)cc1`, in the test with Staphylococcus aureus [1], the outcome was inactive. Besides, the result in the test with Staphylococcus aureus [2] and with Escherichia coli [3] was Active.
Turning to `C[n+]1cc(-c2ccccc2)c(/C=C/c2ccc(C(C)(C)C)cc2)cc1-c1ccccc1.[I-]`, the result in the test with Staphylococcus aureus [1] was inactive. Moreover, the MIC with Escherichia coli [4] was found to be 8 µg/mL; in the test with Streptococcus pyogenes [5] it was 2 µg/mL; in the test with Escherichia coli [6], 8 µg/mL; in the test with Streptococcus pyogenes [7] it was 2 µg/mL; in the test with Staphylococcus aureus [8], 4 µg/mL; in the test on Bacillus subtilis it was 0.5 µg/mL. The MIC in the test on Enterococcus faecium [9] was 2 µg/mL; in the test on Staphylococcus aureus [10] it was 0.25 µg/mL; in the test with Staphylococcus aureus [11], 0.5 µg/mL; with Enterococcus faecium [12], 4 µg/mL; in [13], 2 µg/mL; in the test with Bacillus pumilus, 2 µg/mL. Further, the MIC in the test on Enterococcus faecalis [14] turned out to be 4 µg/mL; in the test on Klebsiella pneumoniae, 32 µg/mL; in the test on Enterococcus faecalis [15], 4 µg/mL; with Acinetobacter baumannii, 4 µg/mL; with Staphylococcus aureus [16] it was 0.5 µg/mL. The outcome in the test with Staphylococcus aureus [2] and in the test with Escherichia coli [3] was Active.
